From US10759781B2, “Substituted guanidine derivatives” (UBE INDUSTRIES, LTD., priority 2015, dated 2020)

Assays:
Rat Plasma VAP-1 = target: T1, Rat Plasma VAP-1 (Rattus norvegicus, UniProt O08590); assay: (Ex vivo) rat plasma VAP-1 inhibition test after oral administration of the compound; type: in vivo; conditions: 3 hours after oral administration, SD male rats, read-out: inhibition ratio (plasma VAP-1, ex vivo)
T1 construct: from tissue; host or cells: plasma of SD male rats (7-12 weeks old) after oral dosing
T1 sequence (O08590 28-763 limits assumed): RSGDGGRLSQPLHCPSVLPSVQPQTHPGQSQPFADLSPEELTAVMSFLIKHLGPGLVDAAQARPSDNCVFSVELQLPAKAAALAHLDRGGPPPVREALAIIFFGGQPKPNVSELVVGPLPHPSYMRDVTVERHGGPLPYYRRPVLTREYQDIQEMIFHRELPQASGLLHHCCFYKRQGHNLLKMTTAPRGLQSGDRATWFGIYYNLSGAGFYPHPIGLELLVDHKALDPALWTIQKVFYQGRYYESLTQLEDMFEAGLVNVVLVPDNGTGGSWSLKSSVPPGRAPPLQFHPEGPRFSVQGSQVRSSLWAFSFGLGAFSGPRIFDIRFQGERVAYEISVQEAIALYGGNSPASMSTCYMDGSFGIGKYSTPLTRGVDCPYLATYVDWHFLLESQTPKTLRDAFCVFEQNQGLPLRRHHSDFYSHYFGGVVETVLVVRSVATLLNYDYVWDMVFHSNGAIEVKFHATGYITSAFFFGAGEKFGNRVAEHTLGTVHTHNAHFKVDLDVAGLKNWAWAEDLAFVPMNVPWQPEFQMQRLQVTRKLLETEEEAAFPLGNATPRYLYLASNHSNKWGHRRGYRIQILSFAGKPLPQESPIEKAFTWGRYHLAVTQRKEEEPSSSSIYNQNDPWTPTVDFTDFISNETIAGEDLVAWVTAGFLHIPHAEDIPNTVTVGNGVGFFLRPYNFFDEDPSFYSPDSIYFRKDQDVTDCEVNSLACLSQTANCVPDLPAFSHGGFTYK
Procedure: (Ex Vivo) Rat Plasma VAP-1 Inhibition Test after Oral Administration of the Compound
The compound was orally administered (0.3-10 mg/kg) to 7-12 week old SD male rats in the non-fasting state. Under anesthesia, the blood was collected in heparin tubes from the jugular vein before the administration and 3, 8 and 24 hours after the administration. The blood was centrifuged at 14000 rpm for 10 minutes to get plasma. The VAP-1 enzyme activity in the plasma was measured by radiochemical enzyme assay.
The radiochemical enzyme assay was conducted by modifying the method of P. H. Yu et al. (Diabetologia 40 1243 (1997)). ^14C-benzylamine (2.5 μM) was added to the obtained plasma, and was incubated at 37° C. for 3 hours. The reaction was terminated by the addition of 100 μL of 2 M citric acid solution to the reaction solution. The oxidative product was extracted using a toluene/ethyl acetate mixture and the radioactivity was measured with a liquid scintillation counter. The inhibition ratio of the compound was calculated using the following equation. Inhibition ratio={1−[Plasma VAP-1 activity after administration of the compound]/[Plasma VAP-1 activity before administration]}×100

[1] = tested on: Human normal glomerular microvascular endothelial cells; type: cell-based; conditions: 2 days, 100 nM
Procedure: The Cytotoxicity Inhibition Test in Human Normal Glomerular Microvascular Endothelial Cells
(§1) Human normal glomerular microvascular endothelial cells were plated at 6000 cells/well in a collagen-coated 96-well culture plate. After one day of culture, the medium at each well was completely removed by aspiration and replaced with 50 μL of the compound solution diluted with the basal medium. The basal medium containing 0.1% DMSO was added to control wells. Following, the plate was incubated in CO2 incubator for 30 minutes. Fifty microliter of 2 mM methylamine diluted with the basal medium was added (final concentration 1 mM) to each negative control well (0% inhibition) as well as the compound-containing well, and 50 μL of the basal medium was added to each positive control well (100% inhibition). The plate was incubated in CO2 incubator for 2 days. Ten microliter of CCK-8 was added to each well and the mixtures were incubated in a plate incubator at 37° C. for approximately 2 hours after stirring with a plate shaker. The absorbance of the mixtures at 450 nm was measured with a multiplate reader. The cytotoxicity inhibition ratio of the compound was calculated from the following equation. Inhibition ratio={[Average absorbance of the compound-containing wells]−[Average absorbance of negative control wells]}/{[Average absorbance of positive control wells]−[Average absorbance of negative control wells]}×100

[2] = tested on: Human normal hepatic sinusoid-like microvascular endothelial cells; type: cell-based; conditions: 2 days, 300 nM
Procedure: The Cytotoxicity Inhibition Test in Human Normal Hepatic Sinusoid-Like Microvascular Endothelial Cells
as §1, with “hepatic sinusoid-like” for “glomerular”

Human VAP-1 enzyme = target: T2, Human VAP-1 enzyme (Homo sapiens, UniProt Q16853); assay: Human VAP-1 enzyme inhibition test; type: biochemical; conditions: 1 h; compound 30 nM; 14C-benzylamine 100 μM; read-out: inhibition ratio (human VAP-1 enzyme)
T2 construct: purchased R&D Systems, Inc
T2 sequence (Q16853 1-763): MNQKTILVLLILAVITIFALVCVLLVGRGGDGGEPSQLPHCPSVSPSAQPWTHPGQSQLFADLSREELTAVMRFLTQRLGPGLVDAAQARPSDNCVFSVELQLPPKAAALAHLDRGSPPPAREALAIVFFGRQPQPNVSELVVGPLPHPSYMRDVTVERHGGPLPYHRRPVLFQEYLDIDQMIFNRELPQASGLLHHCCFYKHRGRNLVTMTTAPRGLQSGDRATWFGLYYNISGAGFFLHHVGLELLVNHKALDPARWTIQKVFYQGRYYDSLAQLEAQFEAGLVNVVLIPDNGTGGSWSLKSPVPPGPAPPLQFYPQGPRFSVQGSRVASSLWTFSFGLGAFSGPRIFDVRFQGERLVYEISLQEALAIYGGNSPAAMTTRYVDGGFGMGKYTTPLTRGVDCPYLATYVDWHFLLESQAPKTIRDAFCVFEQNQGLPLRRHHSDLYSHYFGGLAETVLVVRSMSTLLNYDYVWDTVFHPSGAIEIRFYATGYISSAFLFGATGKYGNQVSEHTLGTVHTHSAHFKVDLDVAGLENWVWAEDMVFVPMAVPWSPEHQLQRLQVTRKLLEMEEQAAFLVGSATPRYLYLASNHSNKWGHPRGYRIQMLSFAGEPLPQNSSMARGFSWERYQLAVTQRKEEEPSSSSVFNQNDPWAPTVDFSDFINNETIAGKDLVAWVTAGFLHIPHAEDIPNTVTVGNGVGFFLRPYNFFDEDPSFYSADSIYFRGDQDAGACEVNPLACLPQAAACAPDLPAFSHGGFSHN
Summary of the method: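 Activity measured as radioactive oxidation product of 14C-benzylamine (100 μM final), extracted with toluene/ethyl acetate after citric acid stop and scintillation-counted. Enzyme (recombinant human VAP-1) first exposed to compound 20 min at room temperature, reaction then 1 h at 37 °C. Percent inhibition versus DMSO control.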

| SMILES | inhibition in vivo at 0.3 mg/kg (Rat Plasma VAP-1) [%] | cytotoxicity inhibition ratio [1] [%] | cytotoxicity inhibition ratio [2] [%] | inhibition at 0.03 µM (Human VAP-1 enzyme) [%] |
| --- | --- | --- | --- | --- |
| CCON=C1CN(c2ncc(-c3cccc(COC(=O)NC(=N)N)c3F)cn2)C1 [Example 2, 3-{2-[3-(Ethoxyimino)azetidin-1-yl]pyrimidin-5-yl}-2-fluorobenzyl carbamimidoylcarbamate] | ≥ 50 | ≥ 50 | ≥ 50 |  |
| N=C(N)NC(=O)OCc1cccc(-c2cnc(N3CC(=NOCCF)C3)nc2)c1F [Example 5, 2-Fluoro-3-(2-{3-[(2-fluoroethoxy)imino]azetidin-1-yl}pyrimidin-5-yl)benzyl carbamimidoylcarbamate] | ≥ 50 | ≥ 50 | ≥ 50 |  |
| CS(=O)(=O)CCON=C1CCN(c2ncc(-c3cccc(COC(=O)NC(=N)N)c3F)cn2)CC1 [Example 167, 2-Fluoro-3-[2-(4-{[2-(methylsulfonyl)ethoxy]imino}piperidin-1-yl)pyrimidin-5-yl]benzyl carbamimidoylcarbamate] | ≥ 50 |  |  | ≥ 50 |
| CS(=O)(=O)CCCON=C1CCN(c2ncc(-c3cccc(COC(=O)NC(=N)N)c3F)cn2)CC1 [Example 168, 2-Fluoro-3-[2-(4-{[3-(methylsulfonyl)propoxy]imino}piperidin-1-yl)pyrimidin-5-yl]benzyl carbamimidoylcarbamate] | ≥ 50 |  |  | ≥ 50 |
| Cn1ccc(CON=C2CCN(c3ncc(-c4cccc(COC(=O)NC(=N)N)c4F)cn3)CC2)n1 [Example 169, 2-Fluoro-3-[2-(4-{[(1-methyl-1H-pyrazol-3-yl)methoxy]imino}piperidin-1-yl)pyrimidin-5-yl]benzyl carbamimidoylcarbamate] | ≥ 50 |  |  | ≥ 50 |
| N=C(N)NC(=O)OCc1cccc(-c2cnc(N3CCC(=NOCc4cc[nH]n4)CC3)nc2)c1F [Example 171, 3-[2-(4-{[(1H-pyrazol-3-yl)methoxy]imino}piperidin-1-yl)pyrimidin-5-yl]-2-fluorobenzyl carbamimidoylcarbamate] | ≥ 50 |  |  | ≥ 50 |
| N=C(N)NC(=O)OCc1cccc(-c2cnc(N3CCC(=NOCc4cn[nH]c4)CC3)nc2)c1F [Example 173, 3-[2-(4-{[(1H-pyrazol-4-yl)methoxy]imino}piperidin-1-yl)pyrimidin-5-yl]-2-fluorobenzyl carbamimidoylcarbamate] | ≥ 50 |  |  | ≥ 50 |
| Cn1cc(CON=C2CCN(c3ncc(-c4cccc(COC(=O)NC(=N)N)c4F)cn3)CC2)cn1 [Example 174, 2-Fluoro-3-[2-(4-{[(1-methyl-1H-pyrazol-4-yl)methoxy]imino}piperidin-1-yl)pyrimidin-5-yl]benzyl carbamimidoylcarbamate] | ≥ 50 |  |  | ≥ 50 |
| N=C(N)NC(=O)OCc1cccc(-c2cnc(N3CCC(=NOCCn4cccn4)CC3)nc2)c1F [Example 175, 3-[2-(4-{[2-(1H-pyrazol-1-yl)ethoxy]imino}piperidin-1-yl)pyrimidin-5-yl]-2-fluorobenzyl carbamimidoylcarbamate] | ≥ 50 |  |  | ≥ 50 |
| N=C(N)NC(=O)OCc1cccc(-c2cnc(N3CCC(=NOCc4ccncc4)CC3)nc2)c1F [Example 176, 2-Fluoro-3-(2-{4-[(pyridin-4-ylmethoxy)imino]piperidin-1-yl}pyrimidin-5-yl)benzyl carbamimidoylcarbamate] | ≥ 50 |  |  | ≥ 50 |
| N=C(N)NC(=O)OCc1cccc(-c2cnc(N3CCC(=NOCCN4C(=O)CCC4=O)CC3)nc2)c1F [Example 177, 3-[2-(4-{[2-(2,5-Dioxopyrrolidin-1-yl)ethoxy]imino}piperidin-1-yl)pyrimidin-5-yl]-2-fluorobenzyl carbamimidoylcarbamate] | ≥ 50 |  |  | ≥ 50 |
| N=C(N)NC(=O)OCc1cccc(-c2cnc(N3CCC(=NOCCN4CCCC4=O)CC3)nc2)c1F [Example 178, 2-Fluoro-3-[2-(4-{[2-(2-oxopyrrolidin-1-yl)ethoxy]imino}piperidin-1-yl)pyrimidin-5-yl]benzyl carbamimidoylcarbamate] | ≥ 50 |  |  | ≥ 50 |
| N=C(N)NC(=O)OCc1cccc(-c2cnc(N3CCC(=NOc4cncnc4)CC3)nc2)c1F [Example 182, 2-Fluoro-3-(2-{4-[(pyrimidin-5-yloxy)imino]piperidin-1-yl}pyrimidin-5-yl)benzyl carbamimidoylcarbamate] | ≥ 50 |  |  | ≥ 50 |
| N=C(N)NC(=O)OCc1cccc(-c2cnc(N3CCC(=NOc4ncccn4)CC3)nc2)c1F [Example 183, 2-Fluoro-3-(2-{4-[(pyrimidin-2-yloxy)imino]piperidin-1-yl}pyrimidin-5-yl)benzyl carbamimidoylcarbamate] | ≥ 50 |  |  | ≥ 50 |
